Patent US5739294A, “Bicyclopol yazamacrocyclophosphonic acid complexes for use as contrast agents” (priority 1994, dated 1998)

Columns and labels:
[1] = percent metal as a complex (Sephadex column, ^153 Sm tracer); assay type: physicochemical; settings: 1:1 ligand/metal, SmCl3 3×10^-4 M in 0.01N HCl
Experimental: A stock ^159 GdCl3 (or ^153 SmCl3) solution was prepared by adding 2 μL of 3×10^-4 M ^159 GdCl3 in 0.1N HCl to 2 mL of a 3×10^-4 M GdCl3 carrier solution. Appropriate ligand solutions were then prepared in deionized water. The 1:1 ligand/metal complexes were then prepared by combining the ligands (dissolved in 100-500 μL of deionized water) with 2 mL of the stock ^159 GdCl3 solution, followed by through mixing to give an acidic solution (pH=2). The pH of the solution was then raised to 7.0 using 0.1N NaOH. The percent metal as a complex was then determined by passing a sample of the complex solution through a Sephadex™ G-50 column, eluting with 4:1 saline ([…]) and collecting 2×3 mL fractions. The amount of radioactivity in the combined elutions was then compared with that left on the resin (non-complexed metal is retained on the resin). […]
A solution of the ligand of Example 1 was prepared by dissolving 3.8 mg of ligand/0.517 mL of deionized water (pH=2). […] After thorough mixing, the percent metal as a complex was determined by passing a sample of the complex solution through a Sephadex™ column, eluting with 4:1 saline (0.85% NaCl/NH4 OH), and collecting 2×3 mL fractions. The amount of radioactivity in the combined elutions was then compared with that left on the resin. […] By this method complexation was determined to be 98%. […]

[2] = biodistribution, percent of injected dose in tissues of rats; assay type: in vivo, Sprague Dawley rats; settings: rat, tail vein; for % injected dose, Blood: blood assumed 7% of body weight; for % injected dose, Muscle: muscle assumed 43% of body weight; for % injected dose, Bone: percent dose in femur × 25
Experimental: Sprague Dawley rats were allowed to acclimate for five days then injected with 100 μL of the complex solution via a tail vein. The rats weighed between 150 and 200 g at the time of injection. […] The amount of radioactivity in each tissue was determined by counting in a NaI scintillation counter coupled to a multichannel analyzer. The counts were compared to the counts in 100 μL standards in order to determine the percentage of the dose in each tissue or organ.
The percent dose in blood was estimated assuming blood to be 7% of the body weight. The percent dose in bone was estimated by multiplying the percent dose in the femur by 25. The percent dose in muscle was estimated assuming muscle to be 43% of the body weight. […]

[3] = in vivo; cited from earlier work
[4] = compared with Magnevist; cited from earlier work
[5] = MRI imaging experiments in rats; assay type: in vivo, Sprague Dawley rat; settings: rat, intramuscular, 0.05-0.1 mmol Gd/kg
Experimental: Injectable solutions were first prepared (0.5M) by dissolving the appropriate amount of each complex in 2 mL of deionized water. The pH of the solutions were then adjusted to 7.4 using 1M HCl or NaOH as needed. The total Gd content of each solution was then determined by ICP analysis.
An anesthetized Sprague Dawley rat was injected intramuscularly with one of the metal solutions described above at a dose of 0.05-0.1 mmol Gd/kg body weight. Images were then taken at various time intervals and compared with a non-injected control at time 0.

^153 Sm-3,6,9,15-tetraazabicyclo[9.3.1]pentadeca-1(15),11,13-triene-3,6,9-trimethylenephosphonic acid [^153 Sm-PCTMP]
complexation (percent metal as a complex) [1]: 98%
% injected dose, Kidney ([2]; 30 min (general procedure)): 1.42%
% injected dose, Liver ([2]; 30 min (general procedure)): 0.99%
% injected dose, Spleen ([2]; 30 min (general procedure)): 0.07%
% injected dose, Blood ([2]; 30 min (general procedure)): 6.27%
% injected dose, Muscle ([2]; 30 min (general procedure)): 4.77%
% injected dose, Bone ([2]; 30 min (general procedure)): 34.87%

CNC[C@H](O)[C@@H](O)[C@H](O)[C@H](O)CO.CNC[C@H](O)[C@@H](O)[C@H](O)[C@H](O)CO.O=C([O-])CN(CCN(CC(=O)[O-])CC(=O)O)CCN(CC(=O)[O-])CC(=O)O.[Gd+3] [MAGNEVIST, complex of gadolinium with diethylenetriaminepentaacetic acid]
distribution [3]: freely distributes in extracellular fluid
elimination [3]: efficient elimination through the renal system

O=C(O)CN1CCN(CP(=O)(O)O)CCN(CC(=O)O)Cc2cccc(n2)C1.[153Sm] [^153 Sm-PC2A1P]
% injected dose, Brain ([2]; 2 hours post injection): 0.01%
% injected dose, Heart ([2]; 2 hours post injection): 0.04%
% injected dose, Kidney ([2]; 2 hours post injection): 0.93%
% injected dose, Large Intestine ([2]; 2 hours post injection): 0.12%
% injected dose, Liver ([2]; 2 hours post injection): 1.46%
% injected dose, Lung ([2]; 2 hours post injection): 0.06%
% injected dose, Small Intestine ([2]; 2 hours post injection): 13.10%
% injected dose, Spleen ([2]; 2 hours post injection): 0.02%
% injected dose, Stomach ([2]; 2 hours post injection): 0.25%
% injected dose, Blood ([2]; 2 hours post injection): 0.36%
% injected dose, Muscle ([2]; 2 hours post injection): 1.00%
% injected dose, Bone ([2]; 2 hours post injection): 47.98%

CC(O)CN1CCN(CC(=O)[O-])CCN(CC(=O)[O-])CCN(CC(=O)[O-])CC1.[Gd+3] (centres unmarked) [PROHANCE, [1,4,7-tris(carboxymethyl)-10-(2-hydroxypropyl)-1,4,7,10-tetraazacyclododecanato]-gadolinium]
distribution [3]: freely distributes in extracellular fluid
elimination [3]: efficient elimination through the renal system
side effects [4]: fewer side effects than Magnevist

CCCOP(=O)([O-])CN1CCN(CP(=O)([O-])OCCC)Cc2cccc(n2)CN(CP(=O)([O-])OCCC)CC1.[153Sm+3] [^153 Sm-PMPHE]
% injected dose, Brain ([2]; 2 hours post injection): 0.00%
% injected dose, Heart ([2]; 2 hours post injection): 0.08%
% injected dose, Kidney ([2]; 2 hours post injection): 1.55%
% injected dose, Large Intestine ([2]; 2 hours post injection): 2.17%
% injected dose, Liver ([2]; 2 hours post injection): 4.14%
% injected dose, Lung ([2]; 2 hours post injection): 0.12%
% injected dose, Small Intestine ([2]; 2 hours post injection): 10.71%
% injected dose, Spleen ([2]; 2 hours post injection): 0.05%
% injected dose, Stomach ([2]; 2 hours post injection): 0.44%
% injected dose, Blood ([2]; 2 hours post injection): 0.25%
% injected dose, Muscle ([2]; 2 hours post injection): 1.19%
% injected dose, Bone ([2]; 2 hours post injection): 10.86%

CCCCOP(=O)([O-])CN1CCN(CP(=O)([O-])OCCCC)Cc2cccc(n2)CN(CP(=O)([O-])OCCCC)CC1.[153Sm+3] [^153 Sm-PMBHE]
% injected dose, Brain ([2]; 2 hours post injection): 0.00%
% injected dose, Heart ([2]; 2 hours post injection): 0.02%
% injected dose, Kidney ([2]; 2 hours post injection): 0.43%
% injected dose, Large Intestine ([2]; 2 hours post injection): 0.77%
% injected dose, Liver ([2]; 2 hours post injection): 2.70%
% injected dose, Lung ([2]; 2 hours post injection): 0.04%
% injected dose, Small Intestine ([2]; 2 hours post injection): 57.89%
% injected dose, Spleen ([2]; 2 hours post injection): 0.05%
% injected dose, Stomach ([2]; 2 hours post injection): 0.08%
% injected dose, Blood ([2]; 2 hours post injection): 0.14%
% injected dose, Muscle ([2]; 2 hours post injection): 1.09%
% injected dose, Bone ([2]; 2 hours post injection): 3.73%

O=P(O)(O)CN1CCN(CP(=O)(O)O)Cc2cccc(n2)CN(CP(=O)(O)O)CC1.[Gd] [Gd-PCTMP]
MR image enhancement, kidney [5]: kidney enhancement
bone localization in MR image [5]: bone localization in the shoulder, spine and sternum
